# Measurements taken from US12172975B2, “1H-indazole carboxamides as receptor-interacting protein kinase 1 inhibitors (RIPK1)” (BRISTOL-MYERS SQUIBB COMPANY, priority 2018, dated 2024).
# pIC50: −log10 of the molar value. Like-named read-outs stand apart in the source and are kept apart here.
# Assays:
# [1] = tested on: MLKL phosphorylation in HT29-L23 human colorectal adenocarcinoma cells; assay: MLKL Phosphorylation High-Content Assay; type: cell-based; details: 6 h, necroptosis induced with TNFα, SMAC mimetic and Z-VAD, read-out: pMLKL (IC50)
# Summary of the method: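 Following fixation and staining for phospho-S358 MLKL with Hoechst nuclear counterstain, high-content imaging quantified phosphorylation in HT29-L23 cells challenged 6 h with TNFα 35 ng/mL, SMAC mimetic 700 nM and Z-VAD 140 nM. Nec-1s at 6.25 μM defined full inhibition; 4-parameter logistic fits yielded IC50 and Ymax.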
# [2] = biological target: His-GST-TVMV-hRIPK1 (1-324) (Homo sapiens (Human), UniProt Q13546); assay: RIPK1 HTRF Binding Assay; details: read-out: RIPK1 HTRF (IC50); FRET probe displacement, 1 h at rt
# Sequence of His-GST-TVMV-hRIPK1 (1-324) (Q13546 1-324): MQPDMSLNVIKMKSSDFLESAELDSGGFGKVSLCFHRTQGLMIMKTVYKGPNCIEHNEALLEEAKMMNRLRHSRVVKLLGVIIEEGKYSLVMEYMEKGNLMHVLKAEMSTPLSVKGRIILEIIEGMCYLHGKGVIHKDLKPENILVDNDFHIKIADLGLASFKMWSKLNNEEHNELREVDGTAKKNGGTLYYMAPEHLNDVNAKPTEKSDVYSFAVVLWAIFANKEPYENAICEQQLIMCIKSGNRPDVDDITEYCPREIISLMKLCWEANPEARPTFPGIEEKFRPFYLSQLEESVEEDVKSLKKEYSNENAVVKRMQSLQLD
compound,measurement,setting,value
"CCN(CC1CCC1)C(=O)C1CCCC(NC(=O)c2cc(-c3ccc4c(C(=O)NC)n[nH]c4c3)cnc2OC)C1 (stereo not shown) [Example 124, 6-[5-({3-[(cyclobutylmethyl)-(ethyl)carbamoyl]cyclohexyl}-carbamoyl)-6-methoxypyridin-3-yl]-N-methyl-1H-indazole-3-carboxamide]",pIC50,[1]; Homo sapiens,7.08
same,pIC50,[2],7.59
"COc1ncc(-c2ccc3c(C(=O)NCC4CC4)n[nH]c3c2)cc1C(=O)NCc1ccccc1OC(F)(F)F [Example 172, N-(cyclopropylmethyl)-6-[6-methoxy-5-({[2-(trifluoro-methoxy)phenyl]methyl}-carbamoyl)pyridin-3-yl]-1H-indazole-3-carboxamide]",pIC50,[1]; Homo sapiens,7.55
same,pIC50,[2],7.85
"CNC(=O)c1n[nH]c2cc(-c3cnc(OC)c(C(=O)NCc4ccccc4OC4CCC(C)C4)c3)ccc12 (stereo not shown) [Example 131, 6-{6-methoxy-5-[({2-[(3-methylcyclopentyl)oxy]-phenyl}methyl)carbamoyl]-pyridin-3-yl}-N-methyl-1H-indazole-3-carboxamide]",pIC50,[1]; Homo sapiens,8.64
same,pIC50,[2],8.00
"CNC(=O)c1n[nH]c2cc(-c3cnc(OC)c(C(=O)NC[C@@H]4CCCC[C@H]4NC(=O)OC(C)(C)C)c3)ccc12 [Example 77, tert-butyl N-[(1R,2S)-2-[({2-methoxy-5-[3-(methylcarbam-oyl)-1H-indazol-6-yl]pyridin-3-yl}formamido)methyl]-cyclohexyl]carbamate]",pIC50,[1],7.11
same,pIC50,[2],8.42
"CNC(=O)c1n[nH]c2cc(-c3cnc(OC)c(C(=O)NCc4cc(F)cc(F)c4OC(C)C)c3)ccc12 [Example 126, 6-[5-({[3,5-difluoro-2-(propan-2-yloxy)phenyl]methyl}-carbamoyl)-6-methoxypyridin-3-yl]-N-methyl-1H-indazole-3-carboxamide]",pIC50,[1]; Homo sapiens,8.16
same,pIC50,[2],8.38
"[2H]C([2H])([2H])Oc1ncc(-c2ccc3c(C(=O)NC)n[nH]c3c2)cc1C(=O)N[C@@H](C)c1cccc(C(F)(F)F)c1 [Example 35, 6-[6-(deutero)methoxy-5-{[(1S)-1-[3-(trifluoromethyl)phenyl]-ethyl]carbamoyl}pyridin-3-yl]-N-methyl-1H-indazole-3-carboxamide]",pIC50,[1]; Homo sapiens,7.36
same,pIC50,[2],8.00
"CNC(=O)c1n[nH]c2cc(-c3cnc(OC)c(C(=O)NCc4ccccc4C#N)c3)ccc12 [Example 84, 6-(5-{[(2-cyanophenyl)methyl]-carbamoyl}-6-methoxypyridin-3-yl)-N-methyl-1H-indazole-3-carboxamide]",pIC50,[1]; Homo sapiens,6.74
same,pIC50,[2],7.35
"CNC(=O)c1n[nH]c2cc(-c3cnc(OC)c(C(=O)NCc4cc(C(F)(F)F)ccc4OC)c3)ccc12 [Example 76, 6-[6-methoxy-5-({[2-methoxy-5-(trifluoromethyl)phenyl]-methyl}carbamoyl)pyridin-3-yl]-N-methyl-1H-indazole-3-carboxamide]",pIC50,[1]; Homo sapiens,7.00
same,pIC50,[2],7.01
"COc1ncc(-c2ccc3c(C(=O)NC4CC4)n[nH]c3c2)cc1C(=O)N[C@@H](C)c1cc(OC(F)(F)F)ccc1F [Example 206, N-cyclopropyl-6-(5-{[(1S)-1-[2-fluoro-5-(trifluoromethoxy)-phenyl](2,2,2-deutero)ethyl]-carbamoyl}-6-(deutero)methoxy-pyridin-3-yl)-1H-indazole-3-carboxamide]",pIC50,[1],8.42
same,pIC50,[2],6.66
"COc1ncc(-c2ccc3c(C(=O)NC4CCC(N(C)C)CC4)n[nH]c3c2)cc1C(=O)NCc1ccccc1OC(F)(F)F (stereo not shown) [Example 185, N-[4-(dimethylamino)cyclo-hexyl]-6-[6-methoxy-5-({[2-(trifluoromethoxy)phenyl]-methyl}carbamoyl)pyridin-3-yl]-1H-indazole-3-carboxamide]",pIC50,[1]; Homo sapiens,6.96
same,pIC50,[2],7.89
"COc1ncc(-c2ccc3c(C(=O)NC4CC4)n[nH]c3c2)cc1C(=O)N[C@H](C)c1cc(OC(F)(F)F)ccc1F [Example 207, N-cyclopropyl-6-(5-{[(1R)-1-[2-fluoro-5-(trifluoromethoxy)-phenyl](2,2,2-deutero)ethyl]-carbamoyl}-6-(deutero)methoxy-pyridin-3-yl)-1H-indazole-3-carboxamide]",pIC50,[1],6.96
same,pIC50,[2],7.28
"CNC(=O)c1n[nH]c2cc(-c3cnc(OC)c(C(=O)NCC(C)(C)C(=O)NCc4ccc(F)cc4)c3)ccc12 [Example 91, 6-{5-[(2-{[(4-fluorophenyl)-methyl]carbamoyl}-2,2-dimethylethyl)carbamoyl]-6-methoxypyridin-3-yl}-N-methyl-1H-indazole-3-carboxamide]",pIC50,[1]; Homo sapiens,7.80
same,pIC50,[2],8.74
"CNC(=O)c1n[nH]c2cc(-c3cnc(OC)c(C(=O)NCc4c(F)cccc4OC(C)C)c3)ccc12 [Example 127, 6-[5-({[2-fluoro-6-(propan-2-yloxy)phenyl]methyl}-carbamoyl)-6-methoxy-pyridin-3-yl]-N-methyl-1H-indazole-3-carboxamide]",pIC50,[1]; Homo sapiens,8.43
same,pIC50,[2],8.64
"CNC(=O)c1n[nH]c2cc(-c3cnc(OC)c(C(=O)NC4CCCC(C(=O)N5CCOCC5)C4)c3)ccc12 (stereo not shown) [Example 98, 6-(6-methoxy-5-{[3-(morpho-line-4-carbonyl)cyclohexyl]-carbamoyl}pyridin-3-yl)-N-methyl-1H-indazole-3-carbox-amide]",pIC50,[1],7.34
same,pIC50,[2],7.59
"COc1ncc(-c2ccc3c(C(=O)NCCO)n[nH]c3c2)cc1C(=O)NCc1ccccc1OC(F)(F)F [Example 182, N-(2-hydroxyethyl)-6-[6-meth-oxy-5-({[2-(trifluoromethoxy)-phenyl]methyl}carbamoyl)-pyridin-3-yl]-1H-indazole-3-carboxamide]",pIC50,[1]; Homo sapiens,7.08
same,pIC50,[2],7.92
"CNC(=O)c1n[nH]c2cc(-c3cnc(OC)c(C(=O)NCCCOC4CCCCC4)c3)ccc12 [Example 62, 6-(5-{[3-(cyclohexyloxy)-propyl]carbamoyl}-6-methoxy-pyridin-3-yl)-N-methyl-1H-indazole-3-carboxamide]",pIC50,[1]; Homo sapiens,7.59
same,pIC50,[2],8.17
"[2H]C([2H])([2H])NC(=O)c1n[nH]c2cc(-c3cnc(OC)c(C(=O)NC(C)c4ccccc4OC(F)(F)F)c3)ccc12 (stereo not shown) [Example 152, 6-[6-methoxy-5-({1-[2-(tri-fluoromethoxy)phenyl]ethyl}-carbamoyl)pyridin-3-yl]-N-(deutero)methyl-1H-indazole-3-carboxamide]",pIC50,[1]; Homo sapiens,8.48
same,pIC50,[2],7.70
"CNC(=O)c1n[nH]c2cc(-c3cnc(OC)c(C(=O)NCc4ccc(F)c(C(F)(F)F)c4)c3)ccc12 [Example 104, 6-[5-({[4-fluoro-3-(trifluoro-methyl)phenyl]methyl}carbam-oyl)-6-methoxypyridin-3-yl]-N-methyl-1H-indazole-3-carboxamide]",pIC50,[1],7.03
same,pIC50,[2],7.40
"[2H]C([2H])([2H])NC(=O)c1n[nH]c2cc(-c3cnc(OC)c(C(=O)NCC(C)(C)C(=O)OC4CCOCC4)c3)ccc12 [Example 148, oxan-4-yl 3-[(2-methoxy-5-{3-[(deutero)methylcarbamoyl]-1H-indazol-6-yl}pyridin-3-yl)formamido]-2,2-dimethyl-propanoate]",pIC50,[1]; Homo sapiens,7.02
same,pIC50,[2],7.27
"[2H]C([2H])([2H])Oc1ncc(-c2ccc3c(C(=O)NC4CC4)n[nH]c3c2)cc1C(=O)NCC(C)(C)C(=O)OC(C)(C)C [Example 200, tert-butyl 3-({5-[3-(cyclopropyl-carbamoyl)-1H-indazol-6-yl]-2-(deutero)methoxypyridin-3-yl}-formamido)-2,2-dimethyl-propanoate]",pIC50,[1]; Homo sapiens,7.10
same,pIC50,[2],6.89
"CNC(=O)c1n[nH]c2cc(-c3cnc(OC)c(-c4nnn(Cc5ccccc5)n4)c3)ccc12 [Example 20, 6-[5-(2-benzyl-2H-1,2,3,4-tetrazol-5-yl)-6-methoxypyridin-3-yl]-N-methyl-1H-indazole-3-carboxamide]",pIC50,[1]; Homo sapiens,7.57
same,pIC50,[2],7.18
"N-[(1,1,2,2,2-deutero)ethyl]-6-(5- {[(1R)-1-[2-fluoro-5-(trifluoro- methoxy)phenyl]ethyl]carbamoyl}- 6-(deutero)methoxypyridin-3-yl)- 1H-indazole-3-carboxamide [Example 225]",pIC50,[1],7.04
same,pIC50,[2],7.37
"[2H]C([2H])([2H])Oc1ncc(-c2ccc3c(C(=O)NC4CC(F)(F)C4)n[nH]c3c2)cc1C(=O)N[C@@H]1CN(C(=O)C2CC(F)(F)C2)C[C@@H]1F [Example 191, 6-(5-{[(3R,4S)-1-(3,3-difluorocyclo-butanecarbonyl)-4-fluoropyrrolidin-3-yl]carbamoyl}-6-(deutero)methoxy-pyridin-3-yl)-N-(3,3-difluorocyclo-butyl)-1H-indazole-3-carboxamide]",pIC50,[1]; Homo sapiens,7.05
same,pIC50,[2],6.92
"CCNC(=O)c1n[nH]c2cc(-c3cnc(OC)c(C(=O)N[C@H](C)c4cc(OC(F)(F)F)ccc4F)c3)ccc12 [Example 233, N-[(1,1,2,2,2-deutero)ethyl]-6-(5-{[(1R)-1-[2-fluoro-5-(trifluorometh-oxy)phenyl](2,2,2-deutero)ethyl]-carbamoyl}-6-(deutero)methoxy-pyridin-3-yl)-1H-indazole-3-carbox-amide]",pIC50,[1],7.11
same,pIC50,[2],7.27
"CNC(=O)c1n[nH]c2cc(-c3cc(C(=O)NCC4CCCC4(C)C)c(OC)nc3C)ccc12 (stereo not shown) [Example 159, 6-(5-{[(2,2-dimethylcyclo-pentyl)methyl]carbamoyl}-6-methoxy-2-methyl-pyridin-3-yl)-N-methyl-1H-indazole-3-carboxamide]",pIC50,[1]; Homo sapiens,6.96
same,pIC50,[2],7.47
"CNC(=O)c1n[nH]c2cc(-c3cnc(OC)c(C(=O)NCc4ccccc4NC(=O)OC(C)(C)C)c3)ccc12 [Example 73, tert-butyl-N-{2-[({2-methoxy-5-[3-(methylcarbamoyl)-1H-indazol-6-yl]pyridin-3-yl}-formamido)methyl]phenyl}-carbamate]",pIC50,[1]; Homo sapiens,6.92
same,pIC50,[2],8.33
